Results published in patent publication US20240368177A1, “5-AMINO-6,8-DIHYDRO-1H-FURO[3,4-d]PYRROLO[3,2-b]PYRIDINE-2-CARBOXAMIDE DERIVATIVES AS MTA-COOPERATIVE INHIBITORS OF PRMT5” (BeiGene Switzerland GmbH, priority 2023, published 2024).

Columns and labels:
HCT116-mock-RNA-KO = test: Cell killing in HCT116 isogenic pair (Cell Titer-Glo viability), mock knock-out cells with MTAP wildtype genotype; format: cell-based, human; conditions: Homo sapiens, HCT-116, 144 h, 6 days incubation, 0-10 μM
Excerpt: (§1) HCT116 cell line (ATCC, CCL-247) was isolated from the colon of an adult with colon cancer. It has a mutation in codon 13 of the ras proto-oncogene and can be used as a positive control for PCR assays of mutation in this codon. HCT116-MTAP-KO was knocked-out-MTAP-gene based HCT116, and a single clone was passed for this assay. HCT116-mock-RNA-KO was knocked-out-mock-gene based HCT116 with MTAP wildtype genotype. The base medium for HCT116 isogenic pair is RPMI 1640, HEPES (Gibco, 22400105). To make the complete growth medium, added the following components to the base medium: fetal bovine serum to a final concentration of 10% (Gibco, 10099-141C). The cell line was grown in a humidified 5% CO2 atmosphere at 37° C. and regularly tested for the presence of mycoplasma with MpcoAlert™ PLUS Mycoplasma Detection Kit (Lonzak LT07-710).
(§2) • Seeded HCT116-mock-RNA-KO (4E2/well) or HCT116-MTAP-KO (4E2/well) cells into a 96-well plate (Greiner: 655090), 100 μL/well. • Incubated at 37° C., 5% CO2, overnight. • Added 50 μL fresh growth medium containing serial dilution of test compounds for a final test compound concentration of 0-10 μM to each well. • Incubated at 37° C., 5% CO2, 6 days. • The cell viability was detected by Cell Titer-Glo (Promega, G7573). Added 70 μL of CeliTiter-Glo® reagent in each well. • Incubated at room temperature for 10 minutes to stabilize luminescent signal. • Analyzed with Microplate Reader (TECAN, SPARK) and fit IC50 using Prism® 9.

HCT116-MTAP-KO = test: Cell killing in HCT116 isogenic pair (Cell Titer-Glo viability), MTAP knock-out cells; format: cell-based, human; conditions: Homo sapiens, HCT-116, 144 h, 6 days incubation, 0-10 μM, * = more than 50% viability inhibition at tested concentration without a full curve
Excerpt: as §1, §2

| SMILES | IC50 (HCT116-mock-RNA-KO) [nM] | IC50 (HCT116-MTAP-KO) [nM] |
| --- | --- | --- |
| CO[C@@H]1CCOC[C@H]1N(Cc1ccc(-c2c(F)cccc2F)cn1)C(=O)c1cc2nc(N)c3c(c2[nH]1)CO[C@@H]3C [Example 23, (R)-5-amino-N-((5-(2,6-difluorophenyl)pyridin-2-yl)methyl)-N-((3R,4R)-4-methoxytetrahydro-2H-pyran-3-yl)-6-methyl-6,8-dihydro-1H-furo[3,4-d]pyrrolo[3,2-b]pyridine-2-carboxamide] | 81 | 4.8 |
| CO[C@@H]1CCOC[C@H]1N(Cc1ccc(-c2c(F)cccc2F)cn1)C(=O)c1cc2nc(N)c3c(c2[nH]1)CO[C@H]3C [Example 24, (S)-5-amino-N-((5-(2,6-difluorophenyl)pyridin-2-yl)methyl)-N-((3R,4R)-4-methoxytetrahydro-2H-pyran-3-yl)-6-methyl-6,8-dihydro-1H-furo[3,4-d]pyrrolo[3,2-b]pyridine-2-carboxamide] | 8540 | 103 |
| Cn1ncnc1-c1ccc(CN(C(=O)c2cc3nc(N)c4c(c3[nH]2)COC4)[C@@H]2CCCc3cccnc32)nc1 [Example 25, (R)-5-amino-N-((5-(1-methyl-1H-1,2,4-triazol-5-yl)pyridin-2-yl)methyl)-N-(5,6,7,8-tetrahydroquinolin-8-yl)-6,8-dihydro-1H-furo[3,4-d]pyrrolo[3,2-b]pyridine-2-carboxamide] | 2000 | 96 |
| CO[C@@H]1CCOC[C@H]1N(Cc1ccc(C(F)(F)F)cn1)C(=O)c1cc2nc(N)c3c(c2[nH]1)COC3 [Example 26, 5-amino-N-((3R,4R)-4-methoxytetrahydro-2H-pyran-3-yl)-N-((5-(trifluoromethyl)pyridin-2-yl)methyl)-6,8-dihydro-1H-furo[3,4-d]pyrrolo[3,2-b]pyridine-2-carboxamide] | 1870 | 14 |
| CO[C@@H]1CCOC[C@H]1N(Cc1ccc(-c2ccccc2)cn1)C(=O)c1cc2nc(N)c3c(c2[nH]1)COC3 [Example 27, 5-amino-N-((3R,4R)-4-methoxytetrahydro-2H-pyran-3-yl)-N-((5-phenylpyridin-2-yl)methyl)-6,8-dihydro-1H-furo[3,4-d]pyrrolo[3,2-b]pyridine-2-carboxamide] | 284 | 2.4 |
| CO[C@@H]1CCOC[C@H]1N(Cc1ccc(-c2ccncc2)cn1)C(=O)c1cc2nc(N)c3c(c2[nH]1)COC3 [Example 28, N-([3,4′-bipyridin]-6-ylmethyl)-5-amino-N-((3R,4R)-4-methoxytetrahydro-2H-pyran-3-yl)-6,8-dihydro-1H-furo[3,4-d]pyrrolo[3,2-b]pyridine-2-carboxamide] | 1900 | 11 |
| Nc1nc2cc(C(=O)N(Cc3ccc(-c4ccncc4)cn3)Cc3c(F)cccc3F)[nH]c2c2c1COC2 [Example 29, N-([3,4′-bipyridin]-6-ylmethyl)-5-amino-N-(2,6-difluorobenzyl)-6,8-dihydro-1H-furo[3,4-d]pyrrolo[3,2-b]pyridine-2-carboxamide] | 81 | 1.3 |
| Nc1nc2cc(C(=O)N(Cc3ccc(-c4c(F)cncc4F)cn3)Cc3c(F)cccc3F)[nH]c2c2c1COC2 [Example 30, 5-amino-N-((3′,5′-difluoro-[3,4′-bipyridin]-6-yl)methyl)-N-(2,6-difluorobenzyl)-6,8-dihydro-1H-furo[3,4-d]pyrrolo[3,2-b]pyridine-2-carboxamide] | 22 | 0.8 |
| Nc1nc2cc(C(=O)N(Cc3ccc(-c4c(F)cncc4F)cn3)Cc3c(Cl)cccc3Cl)[nH]c2c2c1COC2 [Example 31, 5-amino-N-(2,6-dichlorobenzyl)-N-((3′,5′-difluoro-[3,4′-bipyridin]-6-yl)methyl)-6,8-dihydro-1H-furo[3,4-d]pyrrolo[3,2-b]pyridine-2-carboxamide] | 7.1 | 1.2 |
| N#Cc1ccc(CN(Cc2c(F)cccc2F)C(=O)c2cc3nc(N)c4c(c3[nH]2)COC4)nc1 [Example 32, 5-amino-N-((5-cyanopyridin-2-yl)methyl)-N-(2,6-difluorobenzyl)-6,8-dihydro-1H-furo[3,4-d]pyrrolo[3,2-b]pyridine-2-carboxamide] | 451 | 3.9 |
| Nc1nc2cc(C(=O)N(Cc3c(F)cccc3F)CC3CC3)[nH]c2c2c1COC2 [Example 33, 5-amino-N-(cyclopropylmethyl)-N-(2,6-difluorobenzyl)-6,8-dihydro-1H-furo[3,4-d]pyrrolo[3,2-b]pyridine-2-carboxamide] | > 10000 | 210 |
| CO[C@@H]1CCOC[C@H]1N(Cc1ncc(C(F)(F)F)cc1F)C(=O)c1cc2nc(N)c3c(c2[nH]1)COC3 [Example 34, 5-amino-N-((3-fluoro-5-(trifluoromethyl)pyridin-2-yl)methyl)-N-((3R,4R)-4-methoxytetrahydro-2H-pyran-3-yl)-6,8-dihydro-1H-furo[3,4-d]pyrrolo[3,2-b]pyridine-2-carboxamide] | 1350 | 7.4 |
| C[C@H](c1ncccn1)N(Cc1ncc(C(F)(F)F)cc1F)C(=O)c1cc2nc(N)c3c(c2[nH]1)COC3 [Example 35, (R)-5-amino-N-((3-fluoro-5-(trifluoromethyl)pyridin-2-yl)methyl)-N-(1-(pyrimidin-2-yl)ethyl)-6,8-dihydro-1H-furo[3,4-d]pyrrolo[3,2-b]pyridine-2-carboxamide] | 1530 | 11 |
| CO[C@@H]1CCOC[C@H]1N(Cc1ccc(C2CC2)cn1)C(=O)c1cc2nc(N)c3c(c2[nH]1)COC3 [Example 36, 5-amino-N-((5-cyclopropylpyridin-2-yl)methyl)-N-((3R,4R)-4-methoxytetrahydro-2H-pyran-3-yl)-6,8-dihydro-1H-furo[3,4-d]pyrrolo[3,2-b]pyridine-2-carboxamide] | 445 | 5.8 |
| Nc1nc2cc(C(=O)N(Cc3ccc(C(F)(F)F)nn3)Cc3c(F)cccc3F)[nH]c2c2c1COC2 [Example 37, 5-amino-N-(2,6-difluorobenzyl)-N-((6-(trifluoromethyl)pyridazin-3-yl)methyl)-6,8-dihydro-1H-furo[3,4-d]pyrrolo[3,2-b]pyridine-2-carboxamide] | 1680 | 13 |
| C[C@H]1OCc2c1c(N)nc1cc(C(=O)N(Cc3ccc(C(F)(F)F)cn3)Cc3ncccc3F)[nH]c21 [Example 38, (R)-5-amino-N-((3-fluoropyridin-2-yl)methyl)-6-methyl-N-((5-(trifluoromethyl)pyridin-2-yl)methyl)-6,8-dihydro-1H-furo[3,4-d]pyrrolo[3,2-b]pyridine-2-carboxamide] | 665 | 6.3 |
| CN(C(=O)c1cc2nc(N)c3c(c2[nH]1)COC3)[C@H]1COCc2cc(C(F)(F)F)ccc21 [Example 39, (R)-5-amino-N-methyl-N-(7-(trifluoromethyl)isochroman-4-yl)-6,8-dihydro-1H-furo[3,4-d]pyrrolo[3,2-b]pyridine-2-carboxamide] | > 10000 | 1170 |
| CN(C(=O)c1cc2nc(N)c3c(c2[nH]1)COC3)[C@@H]1COCc2cc(C(F)(F)F)ccc21 [Example 40, (S)-5-amino-N-methyl-N-(7-(trifluoromethyl)isochroman-4-yl)-6,8-dihydro-1H-furo[3,4-d]pyrrolo[3,2-b]pyridine-2-carboxamide] | 2490 | 13 |
| C[C@H](c1ncccn1)N(Cc1ncc(Br)cc1F)C(=O)c1cc2nc(N)c3c(c2[nH]1)COC3 [Example 41, (R)-5-amino-N-((5-bromo-3-fluoropyridin-2-yl)methyl)-N-(1-(pyrimidin-2-yl)ethyl)-6,8-dihydro-1H-furo[3,4-d]pyrrolo[3,2-b]pyridine-2-carboxamide] | 586 | 6.6 |
| Nc1nc2cc(C(=O)N(Cc3ncccn3)Cc3ncc(C(F)(F)F)cc3F)[nH]c2c2c1COC2 [Example 42, 5-amino-N-((3-fluoro-5-(trifluoromethyl)pyridin-2-yl)methyl)-N-(pyrimidin-2-ylmethyl)-6,8-dihydro-1H-furo[3,4-d]pyrrolo[3,2-b]pyridine-2-carboxamide] | 2500 | 24 |
| N#Cc1cc(F)c(CN(Cc2ncccc2F)C(=O)c2cc3nc(N)c4c(c3[nH]2)COC4)c(F)c1 [Example 43, 5-amino-N-(4-cyano-2,6-difluorobenzyl)-N-((3-fluoropyridin-2-yl)methyl)-6,8-dihydro-1H-furo[3,4-d]pyrrolo[3,2-b]pyridine-2-carboxamide] | 207 | 2.9 |
| COC[C@@H](C)N(Cc1ncc(C(F)(F)F)cc1F)C(=O)c1cc2nc(N)c3c(c2[nH]1)COC3 [Example 44, (R)-5-amino-N-((3-fluoro-5-(trifluoromethyl)pyridin-2-yl)methyl)-N-(1-methoxypropan-2-yl)-6,8-dihydro-1H-furo[3,4-d]pyrrolo[3,2-b]pyridine-2-carboxamide] | 568 | 8.2 |
